Test results as given in ChEMBL document CHEMBL1152751, “2,5-Disubstituted tetrahydrofurans as selective serotonin re-uptake inhibitors” (Bioorg Med Chem, 2009).
Activity calls are given as the source filed them. The calls are words filed in the database; no cut-off is given here.

Key:
[1] = target: T1, Sodium-dependent dopamine transporter (Homo sapiens, UniProt Q01959); experiment: Inhibition of [3H]dopamine reuptake at human DAT expressed in HEK cells; type: cell-based, HEK293
[2] = target: T1, Sodium-dependent dopamine transporter; experiment: biochemical; type: cell-based, HEK293
Description: Displacement of [125I]RTI55 from human DAT expressed in HEK cells

[3] = target: T2, Sodium-dependent noradrenaline transporter (Homo sapiens, UniProt P23975); experiment: biochemical; type: cell-based, HEK293
T2 sequence (P23975 whole entry): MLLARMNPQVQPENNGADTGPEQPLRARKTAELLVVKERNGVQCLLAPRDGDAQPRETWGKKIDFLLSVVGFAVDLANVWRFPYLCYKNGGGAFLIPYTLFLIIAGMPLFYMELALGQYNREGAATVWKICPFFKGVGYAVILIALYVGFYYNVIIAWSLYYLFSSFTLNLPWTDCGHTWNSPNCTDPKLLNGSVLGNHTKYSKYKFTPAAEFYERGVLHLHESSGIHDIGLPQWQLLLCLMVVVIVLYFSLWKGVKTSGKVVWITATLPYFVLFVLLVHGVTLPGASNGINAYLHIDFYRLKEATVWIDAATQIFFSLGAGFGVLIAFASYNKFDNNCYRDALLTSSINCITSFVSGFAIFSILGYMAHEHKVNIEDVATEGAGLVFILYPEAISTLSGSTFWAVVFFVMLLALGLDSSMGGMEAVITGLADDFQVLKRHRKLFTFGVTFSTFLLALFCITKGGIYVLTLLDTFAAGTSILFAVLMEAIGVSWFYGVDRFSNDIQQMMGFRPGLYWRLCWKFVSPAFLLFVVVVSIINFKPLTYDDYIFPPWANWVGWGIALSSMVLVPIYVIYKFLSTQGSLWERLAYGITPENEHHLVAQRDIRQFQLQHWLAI
Description: Displacement of [125I]RTI55 from human NET expressed in HEK cells

[4] = Metabolic stability assessed as half life in mouse liver microsomes; type: ADME, Microsome
Mus musculus [5] = experiment: Antidepressant activity in ICR mouse assessed as change in duration of immobility at 10 mg/kg, ip pretreated 30 mins before test by forced swimming test; type: functional, organism-based; set-up: dose 10 mg/kg
[6] = target: T3, Sodium-dependent serotonin transporter (Homo sapiens, UniProt P31645); experiment: Inhibition of [3H]serotonin reuptake at human SERT expressed in HEK cells; type: cell-based, HEK293
T3 sequence (P31645 whole entry): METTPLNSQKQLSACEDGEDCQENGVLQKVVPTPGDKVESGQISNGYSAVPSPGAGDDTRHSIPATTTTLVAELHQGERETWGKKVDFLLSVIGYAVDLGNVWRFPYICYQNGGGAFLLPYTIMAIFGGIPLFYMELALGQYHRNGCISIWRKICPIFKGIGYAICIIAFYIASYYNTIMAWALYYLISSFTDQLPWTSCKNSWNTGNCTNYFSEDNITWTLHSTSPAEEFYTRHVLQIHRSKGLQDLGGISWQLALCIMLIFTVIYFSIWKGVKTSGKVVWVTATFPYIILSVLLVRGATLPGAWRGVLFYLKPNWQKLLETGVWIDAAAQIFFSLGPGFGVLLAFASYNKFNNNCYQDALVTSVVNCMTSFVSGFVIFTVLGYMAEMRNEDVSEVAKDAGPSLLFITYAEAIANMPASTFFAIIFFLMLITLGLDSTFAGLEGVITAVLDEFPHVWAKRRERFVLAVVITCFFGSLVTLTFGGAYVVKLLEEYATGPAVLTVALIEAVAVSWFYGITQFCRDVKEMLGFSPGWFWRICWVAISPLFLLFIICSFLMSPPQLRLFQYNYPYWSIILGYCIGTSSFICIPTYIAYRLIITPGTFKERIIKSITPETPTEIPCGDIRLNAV

[7] = target: T3, Sodium-dependent serotonin transporter; experiment: biochemical; type: cell-based, HEK293
Description: Displacement of [125I]RTI55 from human SERT expressed in HEK cells

[8] = target: T2, Sodium-dependent noradrenaline transporter; experiment: Inhibition of [3H]norepinephrine reuptake at human NET expressed in HEK cells; type: cell-based, HEK293
[9] = Metabolic stability assessed as half life in rat liver microsomes; type: ADME, Microsome
Mus musculus [10] = experiment: Antidepressant activity in BALB/c mouse assessed as decrease in duration of immobility at 10 mg/kg, ip pretreated 30 mins before test by forced swimming test; type: functional, organism-based; set-up: dose 10 mg/kg
Mus musculus [11] = experiment: Antidepressant activity in BALB/c mouse assessed as change in duration of immobility at 20 mg/kg, ip pretreated 30 mins before test by forced swimming test; type: functional, organism-based; set-up: dose 20 mg/kg

T1 sequence (Q01959 whole entry): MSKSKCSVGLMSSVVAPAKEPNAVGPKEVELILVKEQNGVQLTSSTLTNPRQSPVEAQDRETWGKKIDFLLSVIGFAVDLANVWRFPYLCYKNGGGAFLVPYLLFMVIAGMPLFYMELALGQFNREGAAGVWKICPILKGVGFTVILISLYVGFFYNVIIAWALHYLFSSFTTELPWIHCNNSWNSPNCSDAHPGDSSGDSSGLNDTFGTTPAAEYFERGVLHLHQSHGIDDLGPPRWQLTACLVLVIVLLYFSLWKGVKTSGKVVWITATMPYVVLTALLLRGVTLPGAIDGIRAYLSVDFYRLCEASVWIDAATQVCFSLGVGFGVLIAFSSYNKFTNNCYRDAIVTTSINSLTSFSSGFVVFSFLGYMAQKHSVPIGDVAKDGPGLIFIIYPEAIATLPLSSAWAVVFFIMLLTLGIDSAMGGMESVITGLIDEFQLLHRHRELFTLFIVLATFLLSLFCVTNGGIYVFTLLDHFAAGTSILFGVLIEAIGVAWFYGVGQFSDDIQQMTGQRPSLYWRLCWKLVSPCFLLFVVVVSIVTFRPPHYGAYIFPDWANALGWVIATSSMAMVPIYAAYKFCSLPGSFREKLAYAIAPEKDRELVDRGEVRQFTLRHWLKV

SMILES: COc1ccc(F)cc1[C@@H]1CC[C@H](CCN)O1 (relative stereo)
- IC50 [1]: > 10 µM
- Ki [2]: > 10 µM

SMILES: COc1ccc(CCC2CCC(CCN)O2)c2ccccc12 (configuration not stated)
- Ki [3]: > 10 µM
- Ki [2]: > 10 µM

SMILES: NCC1CCC(c2ccc(Br)cc2)O1 (configuration not stated)
- Ki [3]: > 10 µM

SMILES: COc1ccc(F)cc1C[C@@H]1CC[C@H](CN)O1 (relative stereo)
- IC50 [1]: 18.7 µM

SMILES: COc1ccc(F)cc1CCC1CCC(CCN)O1 (configuration not stated)
- half-life [4]: 56 min
- Activity (Mus musculus [5]): inactive

SMILES: COc1ccc(F)cc1C1CCC(CN)O1 (configuration not stated)
- IC50 [1]: > 10 µM

SMILES: NCC1CCC(CCc2c(F)c(F)c(F)c(F)c2F)O1 (configuration not stated)
- Ki [2]: > 10 µM

SMILES: COc1ccc(F)cc1CCCC[C@H]1CC[C@H](CN)O1 (relative stereo)
- IC50 [6]: 0.084 µM
- IC50 [1]: 16.5 µM
- Ki [7]: 0.004 µM
- Ki [2]: 3.87 µM

SMILES: CC(C)(C)c1ccc(C2CCC(CN)O2)cc1 (configuration not stated)
- Ki [7]: > 10 µM
- Ki [2]: > 10 µM

SMILES: COc1ccc(F)cc1CCC[C@@H]1CC[C@H](CN)O1 (relative stereo)
- IC50 [6]: 0.0026 µM
- IC50 [1]: 6.29 µM
- Ki [7]: 0.0028 µM
- Ki [2]: 4.58 µM

SMILES: NCC1CCC(CCc2cccc3ccccc23)O1 (configuration not stated)
- IC50 [1]: > 10 µM
- Ki [7]: 0.018 µM
- Ki [3]: > 10 µM
- Ki [2]: > 10 µM

SMILES: NCC1CCC(CCc2cccnc2)O1 (configuration not stated)
- IC50 [6]: 2.72 µM
- IC50 [1]: > 10 µM
- IC50 [8]: > 10 µM
- Ki [2]: > 10 µM

SMILES: COc1ccc(F)cc1C[C@H]1CC[C@H](CCN)O1 (relative stereo)
- IC50 [8]: 1.77 µM

SMILES: COc1ccc(C2CCC(CN)O2)cc1 (configuration not stated)
- Ki [2]: > 10 µM

SMILES: COc1ccc(F)cc1[C@H]1CC[C@H](CCN)O1
- IC50 [1]: > 10 µM
- Ki [2]: 32.9 µM

SMILES: COc1ccc(F)cc1C[C@@H]1CC[C@H](CCN)O1 (relative stereo)
- IC50 [8]: 1.86 µM

SMILES: CNCCC1CCC(CCc2cc(F)ccc2OC)O1 (configuration not stated)
- half-life [4]: 58.5 min
- half-life [9]: 129 min

SMILES: COc1ccc(F)cc1CC[C@H]1CC[C@H](CN)O1
- Ki [2]: 14.5 µM

SMILES: COc1ccc(F)cc1CCC[C@H]1CC[C@H](CN)O1 (relative stereo)
- IC50 [6]: 0.0021 µM
- IC50 [1]: 7.62 µM
- Ki [7]: 0.0008 µM

SMILES: COc1ccc(F)cc1[C@H]1CC[C@H](CN)O1 (relative stereo)
- IC50 [1]: > 10 µM
- Ki [2]: > 10 µM

SMILES: NCCC1CCC(Cc2ccccc2)O1 (configuration not stated)
- Ki [3]: > 10 µM
- Ki [2]: > 10 µM

SMILES: NCCC1CCC(c2ccco2)O1 (configuration not stated)
- IC50 [6]: > 10 µM
- IC50 [1]: > 10 µM
- Ki [7]: > 10 µM
- Ki [3]: > 10 µM
- IC50 [8]: > 10 µM
- Ki [2]: > 10 µM

SMILES: COc1ccc(F)cc1CCCC1CCC(CCN)O1 (mixture of isomers)
- Activity (Mus musculus [10]): inactive

SMILES: COc1ccc(F)cc1C[C@H]1CC[C@H](CN)O1 (relative stereo)
- IC50 [1]: 28.9 µM

SMILES: NCC1CCC(c2ccc3ccccc3c2)O1 (configuration not stated)
- IC50 [6]: 0.004 µM
- Ki [3]: > 10 µM

SMILES: CNCCC(Oc1ccc(C(F)(F)F)cc1)c1ccccc1 (configuration not stated)
- Activity (Mus musculus [10]): Active
- Activity (Mus musculus [11]): inactive

SMILES: COc1ccc2ccccc2c1CCC1CCC(CCN)O1 (configuration not stated)
- Ki [3]: > 10 µM
- Ki [2]: > 10 µM
